The values below come from PubChem BioAssay AID624254 (Broad Institute, 2012).

Structures are written as SMILES. Calls of active or inactive are those of the source. How the calls were made is not given here.

The nature of the assay: Luciferase light induction in v cholerae bh1651, agonist dose response, confirmatory (AID 624254). The following applies: V. cholerae BH1651 luxOD47E, luciferase light induction, 6 h; at 50 µM (top of the series).
For the compound `Cc1cccc(C(=O)OCC(=O)NCC(C)C)c1O`, the “activation (light increase)” value is “inactive”. The result for `CC(=O)Nc1ccc(S(=O)(=O)NCCC(=O)OCC(=O)c2cc(C)ccc2C)cc1` reads “inactive”; that for `Cc1ccc(OCCNC(=O)c2ccco2)cc1C`, “inactive”. The result for `Cc1noc(C)c1NC(=O)Nc1cccc2c1O[C@@H](CN(C)S(=O)(=O)c1cccs1)[C@H](C)CN([C@@H](C)CO)C2=O` reads “inactive”; that for `O=C(c1cc2ccccc2cc1O)N1CCN(c2ccccc2O)CC1`, “inactive”; that for `CCOCCCNC(=O)C(NC(=O)c1cnccn1)c1ccc(C)cc1` (configuration not stated), “inactive”. The result for `CCOc1ccc(Nc2ccc3nonc3c2[N+](=O)[O-])cc1` reads “inactive”; that for `CN(CC(=O)Nc1ccccc1Cl)C(=O)c1cccc(-n2cccc2)c1`, “inactive”.

For `CN(C)C(=O)c1ccccc1NS(=O)(=O)c1cn(C)cn1`, the “activation (light increase)” value was “inactive”. The entry for `O=C(OC1CCN(c2ncc(C(F)(F)F)cc2Cl)CC1)c1ccc(Cl)cc1` is “inactive”. The result for `COc1ccccc1NC(=O)COC(=O)c1ccc2c(c1)OCCO2` reads “inactive”; that for `CCNC(=O)OCc1cn(-c2ccccc2)nn1`, “inactive”.

As to `COc1ccc(CNC(=O)c2ccc(Cl)c(S(=O)(=O)N3CCOCC3)c2)cc1OC`, the “activation (light increase)” value is “inactive”. The entry for `CCOC(=O)c1nnn(-c2nonc2N)c1CN1CCc2ccccc2C1` is “inactive”; for `Cn1cnc(S(=O)(=O)Nc2ccc(OC(F)(F)F)cc2)c1` it is “inactive”. The entry for `Brc1ccc(C2=Nn3c(nnc3-c3n[nH]c4c3CCC4)SC2)cc1` is “inactive”; for `CN(C)S(=O)(=O)c1ccc(NC(=S)NC(=O)Cc2ccccc2)cc1` it is “inactive”.

Take `CN(CC(=O)Nc1ccc(F)c(F)c1F)C(=O)C1CCC1`: the “activation (light increase)” value is “inactive”. As for `CC(C#N)On1c(SC(C)C#N)nc2ccccc2c1=O` (configuration not stated), the “activation (light increase)” value is “inactive”. The entry for `Cn1cnc(S(=O)(=O)Nc2ccc(F)cc2)c1` is “inactive”; for `CCOC(=O)c1ccccc1NC(=O)COC(=O)C1=COCCO1` it is “inactive”. The result for `O=C(Oc1ccnc2cc(Cl)ccc12)N1CCCCCC1` reads “inactive”; that for `CC(C)CNC(=O)COC(=O)/C=C/c1ccco1`, “inactive”; that for `COc1ccc(C(=O)O)cc1S(=O)(=O)Nc1cccc(C(F)(F)F)c1`, “inactive”. The entry for `Cc1cccc(OC(C)C(=O)NC2CCS(=O)(=O)C2)c1C` (configuration not stated) is “inactive”; for `Cc1cc(C(F)(F)F)c2c(N)c(C(=O)NC3CC3)sc2n1` it is “inactive”. For the compound `Cn1cnc(S(=O)(=O)Nc2ccc(C(F)(F)F)cc2)c1`, the “activation (light increase)” value was “inactive”.

Take `CC(=O)Nc1ccc(NS(=O)(=O)c2cn(C)cn2)cc1`: the “activation (light increase)” value is “inactive”. The entry for `COCCSc1ccccc1C(=O)Nc1nnc(COC)s1` is “inactive”; for `CSc1ccccc1NC(=O)COc1ccc(S(=O)(=O)N2CCCC2)cc1` it is “inactive”; for `Nc1nc(SCc2nc3sc4c(c3c(=O)[nH]2)CCCC4)n[nH]1` it is “inactive”.

For `Cc1noc(C)c1NC(=O)Nc1cccc2c1O[C@H](CN(C)S(=O)(=O)c1cccs1)[C@H](C)CN([C@@H](C)CO)C2=O`, the “activation (light increase)” value was “inactive”.

As for `COc1cc(OC)c(OC)cc1CNC(C)C(O)c1ccccc1` (configuration not stated), the “activation (light increase)” value was “inactive”. The result for `CCOC(=O)CC(=O)Nc1nnc(C(C)C)s1` reads “inactive”; that for `N#CCSc1ccccc1NC(=O)COC(=O)CCNC(=O)c1ccc([N+](=O)[O-])cc1`, “inactive”; that for `Cc1cnc(C(=O)OCC(=O)NC(=O)NC(C)C)cn1`, “inactive”. The result for `CC(=O)Nc1ccc2nc(-c3cccnc3)[nH]c2c1` reads “inactive”; that for `O=C(NCc1nc(-c2ccccc2)no1)c1cccs1`, “inactive”; that for `CC(C)CCOc1cccc(OCC(=O)N(C)C2CCS(=O)(=O)C2)c1` (configuration not stated), “inactive”. For `CCOC(=O)C1CCCN(C(=O)c2cc3c(OC)c(OC)c(OC)cc3[nH]2)C1` (configuration not stated), the “activation (light increase)” value was “inactive”. The entry for `O=c1oc2c(CN3CCOCC3)c(O)c(Cl)cc2c2c1CCC2` is “inactive”; for `O=S(=O)(Nc1ccc(-c2csc(-c3ccccc3)n2)cc1)c1ccc(F)cc1` it is “inactive”; for `O=C(O)CN1CCN(Cc2ccc(F)cc2Cl)C1=O` it is “inactive”.

On to `COc1ccccc1NC(=O)Cc1ccc(-c2ccccc2)cc1`, for which the “activation (light increase)” value is “inactive”. As to `O=C(NCc1ccc2c(c1)OCO2)C1CCCN1C(=O)Nc1cccc(Cl)c1` (configuration not stated), the “activation (light increase)” value is “inactive”.

As for `CCCCNC(=O)c1ccccc1NC(=O)CCSc1ccccc1`, the “activation (light increase)” value is “inactive”. The result for `COc1ccc(OCC(=O)Nc2ccccc2OC)cc1` reads “inactive”; that for `CCC1Nc2ncnc(N3CCN(c4ccccc4)CC3)c2N(Cc2ccccc2)C1=O` (configuration not stated), “inactive”; that for `O=C(Nc1ccc(Cl)c(Cl)c1)Nc1ccccc1C(=O)O`, “inactive”. The entry for `CCCS(=O)(=O)N1CCCC(C(=O)NCc2ccc(C)cc2)C1` (configuration not stated) is “inactive”; for `C[C@@H]1CN([C@@H](C)CO)C(=O)c2cccc(NC(=O)C3CC3)c2O[C@@H]1CN(C)S(=O)(=O)c1cccs1` it is “inactive”.

As for `CCc1ccc(OCCNC(=O)c2cccs2)cc1`, the “activation (light increase)” value is “inactive”.

For `CCOCCCNC(=O)C(NC(=O)CNC(=O)c1ccccc1)c1ccccc1` (configuration not stated), the “activation (light increase)” value was “inactive”. The result for `Cc1nc2ccc(C(=O)OCC(=O)N(C)c3ccccc3)cc2nc1C` reads “inactive”; that for `CCCn1nnnc1NCc1ccc(N2CCCC2)cc1`, “inactive”; that for `COc1ccc2[nH]c(=O)c(CNc3ccc(C)c(C)c3)cc2c1`, “inactive”. Take `CCN1CCCC1CNC(=O)c1cc(OC)c(OC)c(OC)c1` (configuration not stated): the “activation (light increase)” value was “inactive”.

For the compound `CC(C)(C)c1nc(N2CCN(C(=O)c3ccco3)CC2)c2nnn(Cc3ccccc3)c2n1`, the “activation (light increase)” value is “inactive”. The entry for `COc1ccc2[nH]c(=O)c(CN(C(=O)c3cccnc3)c3ccc(C)cc3)cc2c1` is “inactive”; for `CCc1ccc(S(=O)(=O)Nc2ccc(Br)cn2)cc1` it is “inactive”; for `COc1ccc(C(CNC(=O)c2ccc(-c3cccc(C(F)(F)F)c3)o2)N2CCOCC2)cc1` (configuration not stated) it is “inactive”.

Regarding `CC(=O)c1ccc(Oc2cc(C)nc(NCc3ccccc3)n2)cc1`, the “activation (light increase)” value was “inactive”.

Turning to `CN(Cc1nc2ccccc2n1C)C(=O)c1ccco1`, the “activation (light increase)” value was “inactive”. The result for `O=C(O)c1cc(CN2CCOCC2)oc1-c1ccccc1` reads “inactive”; that for `COc1ccc(NC(=O)C(=O)NCC2CCCN2S(=O)(=O)c2ccc(C)cc2)cc1` (configuration not stated), “inactive”; that for `COc1ccc(CCNC(=O)c2nnn(-c3ccc4c(c3)OCCO4)c2N)cc1OC`, “inactive”. The result for `Cn1nc(-c2ccc(OCC(=O)NCC3CCCO3)cc2)c2ccccc2c1=O` (configuration not stated) reads “inactive”; that for `COc1cc(C(N)=O)cc(Br)c1OC`, “inactive”; that for `Cc1ccccc1OC(C)c1nc(-c2ccccc2)no1` (configuration not stated), “inactive”. For the compound `Cc1ccc(C)c(NC(=O)CN(C)C(=O)CCN2C(=O)c3ccccc3C2=O)c1`, the “activation (light increase)” value is “inactive”. The result for `O=C(Oc1ccc2ccc(OC(=O)N3CCOCC3)cc2c1)N1CCOCC1` reads “inactive”; that for `CCOC(=O)Cn1nc(C)n(-c2ccc(C(C)C)cc2)c1=O`, “inactive”; that for `Cc1cc2oc(=O)cc(CN3CCC(C)CC3)c2cc1Cl`, “inactive”. `O=C(CN1C(=O)CSC1=O)NC1CCCCC1`: the “activation (light increase)” value was “inactive”.

For `C[C@@H]1CN([C@H](C)CO)C(=O)c2cccc(NC(=O)C3CC3)c2O[C@@H]1CN(C)S(=O)(=O)c1cccs1`, the “activation (light increase)” value was “inactive”. The entry for `CCOC(=O)C1(CCOc2ccccc2)CCN(Cc2cc(OC)cc(OC)c2)CC1` is “inactive”; for `CCc1cccc(C)c1N(C(=O)Cn1c(CO)nc2ccccc21)C(C)COC` (configuration not stated) it is “inactive”. The result for `C[C@@H]1CN([C@@H](C)CO)C(=O)c2cccc(NC(=O)Nc3ccc4c(c3)OCO4)c2O[C@H]1CN(C)S(=O)(=O)c1ccccc1` reads “inactive”; that for `COc1ccccc1CCNC(=O)C(=O)NCCC1CCCCN1S(=O)(=O)c1cccs1` (configuration not stated), “inactive”; that for `COc1ccccc1CNC(=O)c1ccc(S(=O)(=O)N(C)c2ccccc2)cc1`, “inactive”. Take `COc1cc2c(cc1OC)C(c1ccc(C)cc1)NC(=O)C2` (configuration not stated): the “activation (light increase)” value was “inactive”. The entry for `O=c1c2cc(Br)ccc2nc(-c2cccc(C(F)(F)F)c2)n1O` is “inactive”; for `Cc1nn2cnnc2c(C)c1Cc1c(F)cccc1Cl` it is “inactive”; for `CCC(C)NC(=O)Cc1ccc(-c2ccccc2)cc1` (configuration not stated) it is “inactive”. The result for `COc1cc(C2N(c3ccccn3)C(=O)C3CCCN32)cc(OC)c1OC` (configuration not stated) reads “inactive”. Consider `C=CCN1C(=O)c2ccc(C(=O)N(CC)CC(=O)Nc3cc(Cl)ccc3C)cc2C1=O`, for which the “activation (light increase)” value was “inactive”. `Cc1cccc(-c2noc(-c3ccccc3C(=O)NCC3CCCO3)n2)c1` (configuration not stated): the “activation (light increase)” value was “inactive”.
